In the NIST ThermoML archive (doi:10.1021/je300958c):
± gives the expanded uncertainty stated by the source.

Assay: relative permittivity at zero frequency (dimensionless)
Conditions: 101.33 kPa, Liquid, impedance/gain phase analyzer

Compound | relative permittivity at zero frequency (333.15 K) | relative permittivity at zero frequency (278.15 K) | relative permittivity at zero frequency (280.65 K) | relative permittivity at zero frequency (283.15 K) | relative permittivity at zero frequency (285.65 K) | relative permittivity at zero frequency (288.15 K) | relative permittivity at zero frequency (290.65 K) | relative permittivity at zero frequency (293.15 K) | relative permittivity at zero frequency (295.65 K) | relative permittivity at zero frequency (298.15 K) | relative permittivity at zero frequency (300.65 K) | relative permittivity at zero frequency (303.15 K) | relative permittivity at zero frequency (305.65 K) | relative permittivity at zero frequency (308.15 K) | relative permittivity at zero frequency (310.65 K) | relative permittivity at zero frequency (313.15 K) | relative permittivity at zero frequency (315.65 K) | relative permittivity at zero frequency (318.15 K) | relative permittivity at zero frequency (320.65 K) | relative permittivity at zero frequency (323.15 K) | further results
N#CCCC#N [butanedinitrile] | 56.09 ± 0.1 |  |  |  |  |  |  |  |  |  |  |  |  |  |  |  |  |  |  |  | relative permittivity at zero frequency (335.65 K): 55.46 ± 0.1; relative permittivity at zero frequency (338.15 K): 54.85 ± 0.1; relative permittivity at zero frequency (340.65 K): 54.29 ± 0.1; relative permittivity at zero frequency (343.15 K): 53.68 ± 0.1; relative permittivity at zero frequency (345.65 K): 53.11 ± 0.1; relative permittivity at zero frequency (348.15 K): 52.52 ± 0.1; relative permittivity at zero frequency (350.65 K): 51.95 ± 0.1; relative permittivity at zero frequency (353.15 K): 51.36 ± 0.1; relative permittivity at zero frequency (355.65 K): 50.81 ± 0.1; relative permittivity at zero frequency (358.15 K): 50.28 ± 0.1; relative permittivity at zero frequency (360.65 K): 49.73 ± 0.1; relative permittivity at zero frequency (363.15 K): 49.18 ± 0.1; relative permittivity at zero frequency (365.65 K): 48.66 ± 0.1; relative permittivity at zero frequency (368.15 K): 48.14 ± 0.1; relative permittivity at zero frequency (370.65 K): 47.63 ± 0.1; relative permittivity at zero frequency (373.15 K): 47.11 ± 0.1
N#CCCCCCC#N [heptanedinitrile] | 26.32 ± 0.1 | 32.04 ± 0.1 | 31.73 ± 0.1 | 31.43 ± 0.1 | 31.14 ± 0.1 | 30.86 ± 0.1 | 30.57 ± 0.1 | 30.28 ± 0.1 | 30 ± 0.1 | 29.71 ± 0.1 | 29.45 ± 0.1 | 29.18 ± 0.1 | 28.92 ± 0.1 | 28.67 ± 0.1 | 28.42 ± 0.1 | 28.17 ± 0.1 | 27.94 ± 0.1 | 27.68 ± 0.1 | 27.46 ± 0.1 | 27.23 ± 0.1 | relative permittivity at zero frequency (248.15 K): 36.21 ± 0.1; relative permittivity at zero frequency (250.65 K): 35.82 ± 0.1; relative permittivity at zero frequency (253.15 K): 35.44 ± 0.1; relative permittivity at zero frequency (255.65 K): 35.06 ± 0.1; relative permittivity at zero frequency (258.15 K): 34.7 ± 0.1; relative permittivity at zero frequency (260.65 K): 34.35 ± 0.1; relative permittivity at zero frequency (263.15 K): 33.99 ± 0.1; relative permittivity at zero frequency (265.65 K): 33.65 ± 0.1; relative permittivity at zero frequency (268.15 K): 33.31 ± 0.1; relative permittivity at zero frequency (270.65 K): 32.98 ± 0.1; relative permittivity at zero frequency (273.15 K): 32.66 ± 0.1; relative permittivity at zero frequency (275.65 K): 32.36 ± 0.1; relative permittivity at zero frequency (325.65 K): 27 ± 0.1; relative permittivity at zero frequency (328.15 K): 26.77 ± 0.1; relative permittivity at zero frequency (330.65 K): 26.56 ± 0.1
N#CCCCCC#N [hexanedinitrile] | 28.21 ± 0.1 | 34.7 ± 0.1 | 34.35 ± 0.1 | 34.01 ± 0.1 | 33.67 ± 0.1 | 33.36 ± 0.1 | 33.04 ± 0.1 | 32.73 ± 0.1 | 32.41 ± 0.1 | 32.12 ± 0.1 | 31.83 ± 0.1 | 31.53 ± 0.1 | 31.26 ± 0.1 | 30.96 ± 0.1 | 30.67 ± 0.1 | 30.38 ± 0.1 | 30.09 ± 0.1 | 29.8 ± 0.1 | 29.5 ± 0.1 | 29.22 ± 0.1 | relative permittivity at zero frequency (325.65 K): 28.94 ± 0.1; relative permittivity at zero frequency (328.15 K): 28.69 ± 0.1; relative permittivity at zero frequency (330.65 K): 28.46 ± 0.1; relative permittivity at zero frequency (335.65 K): 27.98 ± 0.1; relative permittivity at zero frequency (338.15 K): 27.73 ± 0.1; relative permittivity at zero frequency (340.65 K): 27.52 ± 0.1; relative permittivity at zero frequency (343.15 K): 27.3 ± 0.1; relative permittivity at zero frequency (345.65 K): 27.09 ± 0.1; relative permittivity at zero frequency (348.15 K): 26.83 ± 0.1; relative permittivity at zero frequency (350.65 K): 26.6 ± 0.1; relative permittivity at zero frequency (353.15 K): 26.4 ± 0.1
N#CCCCCCCC#N [octanedinitrile] | 23.3 ± 0.1 | 27.77 ± 0.1 | 27.52 ± 0.1 | 27.29 ± 0.1 | 27.06 ± 0.1 | 26.82 ± 0.1 | 26.6 ± 0.1 | 26.36 ± 0.1 | 26.16 ± 0.1 | 25.94 ± 0.1 | 25.75 ± 0.1 | 25.55 ± 0.1 | 25.32 ± 0.1 | 25.11 ± 0.1 | 24.94 ± 0.1 | 24.74 ± 0.1 | 24.55 ± 0.1 | 24.37 ± 0.1 | 24.2 ± 0.1 | 24 ± 0.1 | relative permittivity at zero frequency (273.15 K): 28.23 ± 0.1; relative permittivity at zero frequency (275.65 K): 28 ± 0.1; relative permittivity at zero frequency (325.65 K): 23.8 ± 0.1; relative permittivity at zero frequency (328.15 K): 23.63 ± 0.1; relative permittivity at zero frequency (330.65 K): 23.47 ± 0.1
N#CCCCC#N [pentanedinitrile] |  | 36.83 ± 0.1 | 36.56 ± 0.1 | 36.27 ± 0.1 | 35.97 ± 0.1 | 35.71 ± 0.1 | 35.41 ± 0.1 | 35.14 ± 0.1 | 34.87 ± 0.1 | 34.6 ± 0.1 | 34.33 ± 0.1 | 34.04 ± 0.1 | 33.83 ± 0.1 | 33.59 ± 0.1 | 33.35 ± 0.1 | 33.13 ± 0.1 | 32.87 ± 0.1 | 32.67 ± 0.1 | 32.44 ± 0.1 | 32.21 ± 0.1 | relative permittivity at zero frequency (248.15 K): 40.78 ± 0.1; relative permittivity at zero frequency (250.65 K): 40.45 ± 0.1; relative permittivity at zero frequency (253.15 K): 40.08 ± 0.1; relative permittivity at zero frequency (255.65 K): 39.78 ± 0.1; relative permittivity at zero frequency (258.15 K): 39.42 ± 0.1; relative permittivity at zero frequency (260.65 K): 39.08 ± 0.1; relative permittivity at zero frequency (263.15 K): 38.74 ± 0.1; relative permittivity at zero frequency (265.65 K): 38.4 ± 0.1; relative permittivity at zero frequency (268.15 K): 38.1 ± 0.1; relative permittivity at zero frequency (270.65 K): 37.78 ± 0.1; relative permittivity at zero frequency (273.15 K): 37.44 ± 0.1; relative permittivity at zero frequency (275.65 K): 37.16 ± 0.1
